Here are results for 47 molecules from paper PMC9995496, “A screen for MeCP2-TBL1 interaction inhibitors using a luminescence-based assay” (Scientific Reports, 2023).

The target in this experiment is T1, MeCP2-TBL1 interaction (MeCP2-SmBiT / TBL1-LgBiT) (Mus musculus, UniProt Q9QXE7).
T1 construct: expressed in transfected cells; crude lysate used as a cell-free assay
T1 sequence (Q9QXE7 166-527): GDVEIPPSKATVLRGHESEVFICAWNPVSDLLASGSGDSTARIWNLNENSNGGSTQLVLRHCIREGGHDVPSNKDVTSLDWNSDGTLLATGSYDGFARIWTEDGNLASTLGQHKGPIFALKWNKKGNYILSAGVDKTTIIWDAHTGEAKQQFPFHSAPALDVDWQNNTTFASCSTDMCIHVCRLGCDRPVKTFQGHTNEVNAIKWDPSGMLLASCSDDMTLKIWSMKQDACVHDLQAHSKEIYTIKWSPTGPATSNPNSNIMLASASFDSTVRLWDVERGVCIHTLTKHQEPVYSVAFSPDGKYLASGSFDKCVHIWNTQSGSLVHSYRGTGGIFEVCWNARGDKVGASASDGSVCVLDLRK
Description: MeCP2-TBL1 NanoLuc luciferase complementation assay (cell-free, extracts of transfected HEK293 cells).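 Further: each compound tested at 20 µM final concentration.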 The class given is binding, human. In short, it runs like this: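 Cell-free split NanoLuc: lysate of HEK293 cells co-expressing the MeCP2 C-terminal half-SmBiT and TBL1 WD domain-LgBiT, mixed 1:1 with furimazine. After 30 min at room temperature, luminescence was plate-median normalized.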

Where [1] appears, read: primary screen of Asinex library, single well per compound.
The mark [2] stands for this setting: primary screen of the Asinex library, sheet "Sargen output Asinex library", one well per compound.
The mark [3] stands for this setting: primary screen of the Asinex library, sheet "Sargen output Asinex library", one well per compound, Batch Ref. 1.

`Cn1cc(C(=O)Nc2cccc(C(=O)N3CCCC(Cc4cnc5ccccc5c4)CC3)c2)cn1` (centres unmarked) [BDH_32361063]: the Inhibition percent under setting [1] is -0.14.

In the case of `Cc1cc(Oc2ccc(F)cc2)nc(C2CCCN(C(=O)c3cccc(Cn4ccnc4)c3)C2)n1` (centres unmarked) [BDH_32361331], under setting [2], the Inhibition percent worked out at 1.28%.

In the case of `Cc1cccc(Cc2cccc(C3CCCN(C(=O)c4ccnc(N5CCOCC5)c4)C3)n2)c1` (centres unmarked) [BDH_32361750], the Inhibition percent under setting [2] was -1.55%.

In the case of `CC1(C(=O)N2CCOCC(Cc3ccc4cnccc4c3)C2)CCN(CCc2ccccc2)CC1` (centres unmarked) [BDH_32362344], the Inhibition percent under setting [2] was -0.71%.

Regarding `CC1(C(=O)N2CCOCC(Cc3ccc4ccncc4c3)C2)CCN(CCc2ccccc2)CC1` (centres unmarked) [BDH_32362347], under setting [2], the Inhibition percent is recorded as -4.04%.

With `C[C@]12C[C@@H](c3ccc(F)cc3)N(C(=O)c3cccc(Oc4ncccn4)c3)[C@H]1CCCCC(=O)N2` [BDH_32362535], the Inhibition percent under setting [1] is reported as -1.66.

Take `COc1ccc(Oc2cncc(C3CCN(C(=O)C4(c5ccccc5)CCOCC4)CC3)n2)cc1` [BDH_32362557]: under setting [3], the Inhibition percent is on record as 3.43%.

As for `Cc1cccc(Cc2cccc(C3CCCN(C(=O)c4ccnc(-c5cnn(C)c5)c4)C3)n2)c1` (centres unmarked) [BDH_32362596], the Inhibition percent under setting [2] is 2.04%.

`Cc1ccc(C(=O)N2CCC3(CC2)COC(Cc2cccc(F)c2)C3)cc1NCc1ccccn1` (centres unmarked) [BDH_32362747]: the Inhibition percent under setting [1] was 0.11.

Consider `Cc1cc(C(=O)N2CCC(Cc3cccc4cccnc34)CC2)nc(C2(C)CCN(C)CC2)n1` [BDH_32363559], for which the Inhibition percent under setting [1] is on record as -3.40.

Take `O=C(c1ccccc1Cn1ccnc1)N1CCCC(c2cccc(Cc3ccc(F)cc3)n2)C1` (centres unmarked) [BDH_32363926]: the Inhibition percent under setting [3] is on record as 1.46%.

As for `O=C(c1cccc(Oc2ncccn2)c1)N1CC[C@H]2[C@H]1CCCCC(=O)N2Cc1ccccc1` [BDH_32363931], the Inhibition percent under setting [2] was -2.83%.

As to `O=C(c1cccc(Nc2ncccn2)c1)N1CCC2(CC1)COC(Cc1cccc(F)c1)C2` (centres unmarked) [BDH_32363979], the Inhibition percent under setting [1] is on record as 9.41.

Turning to `Cc1c(C(=O)N2CCC(O)(CN3CCN(c4ccccc4)CC3)C2)cccc1N1CCOCC1` (centres unmarked) [BDH_32364008], under setting [2], the Inhibition percent is on record as -0.54%.

As for `Cc1nccn1Cc1ccccc1C(=O)N1CCCC(c2cncc(Oc3ccccc3)n2)C1` (centres unmarked) [BDH_32364323], the Inhibition percent under setting [2] is -2.15%.

In the case of `Cc1nc(N(C)C)cc(C2(C)CCCN(C(=O)c3ccc(Cl)c(N4CCOCC4)c3)C2)n1` (centres unmarked) [BDH_32364491], the Inhibition percent under setting [3] is reported as -1.79%.

For the molecule `Cc1cc(Oc2ccc(F)cc2)nc(C2CCCCN2C(=O)c2cccc(-n3cnnc3)c2)n1` (centres unmarked) [BDH_32364593], under setting [1], the Inhibition percent was -1.56.

On to `COc1ccccc1Oc1cccc(C2CCN(C(=O)c3ccnc(N4CCOCC4)c3)CC2)n1` [BDH_32364726], for which the Inhibition percent under setting [3] turned out to be 2.70%.

For `Cc1cc(Oc2ccc(F)cc2)nc(C2CCCCN2C(=O)c2ccnc(-c3cncnc3)c2)n1` (centres unmarked) [BDH_32364851], the Inhibition percent under setting [2] is given as -4.83%.

For `Cc1cc(Oc2ccc(F)cc2)nc(C2CCCCN2C(=O)c2cccc(-c3cncnc3)n2)n1` (centres unmarked) [BDH_32364853], under setting [1], the Inhibition percent is reported as -0.96.

`CC(=O)N[C@@]12CN(C)CC[C@@H]1[C@@H](c1ccccc1)N(C(=O)c1cccc(-n3nc(C)cc3C)c1)C2` [BDH_32365020]: the Inhibition percent under setting [1] is listed as -3.43.

As for `Cn1cc(-c2cccc(C(=O)N3CCC(c4cccc(Cc5ccc(F)cc5)n4)CC3)n2)cn1` [BDH_32365359], the Inhibition percent under setting [2] is given as 2.72%.

For `Cn1cc(-c2cccc(C(=O)N3CCCC(c4cccc(Cc5ccc(F)cc5)n4)C3)n2)cn1` (centres unmarked) [BDH_32365360], under setting [2], the Inhibition percent is listed as 7.56%.

Consider `Cn1cc(-c2ccc(C(=O)N3CCCC(c4cccc(Cc5ccc(F)cc5)n4)C3)cn2)cn1` (centres unmarked) [BDH_32365364], for which, under setting [3], the Inhibition percent was 4.12%.

Regarding `CN1CCN(c2cc(C(=O)N3CCC(O)(CN4CCN(c5ccccc5)CC4)C3)ccn2)CC1` (centres unmarked) [BDH_32365527], under setting [1], the Inhibition percent was -1.97.

As for `COc1cccc(Oc2cc(C)nc(C3CCCCN3C(=O)c3cccc(-n4cnnc4)c3)n2)c1` (centres unmarked) [BDH_32365761], under setting [2], the Inhibition percent was -5.24%.

With `COc1cccc(Nc2ncccc2C(=O)N2CCOCC(Cc3nccn4cccc34)C2)c1` (centres unmarked) [BDH_32366009], under setting [3], the Inhibition percent was -5.94%.

Consider `Cc1cc(Oc2ccccc2F)nc(C2CCCCN2C(=O)c2ccnc(-c3cncnc3)c2)n1` (centres unmarked) [BDH_32366371], for which the Inhibition percent under setting [1] is reported as 0.18.

With `Cc1cc(CC2CCN(C(=O)C3(C)CCN(C(=O)Cc4cccc(F)c4)CC3)CC2)ccn1` [BDH_32366782], under setting [2], the Inhibition percent came out at 4.29%.

For the molecule `Cn1cc(-c2cc(C(=O)N3CCC(c4cncc(-c5cccc(Cl)c5)n4)CC3)ccn2)cn1` [BDH_32366963], the Inhibition percent under setting [3] is reported as 1.59%.

As to `O=C1CCCN1CCOc1cccc(C(=O)N2C3CCC2CC(Cc2cnc4[nH]ccc4c2)C3)c1` (centres unmarked) [BDH_32367285], under setting [3], the Inhibition percent is on record as -0.20%.

As to `Cc1cccc(Cc2cccc(C3CCCN(C(=O)c4ccnc(-c5cncnc5)c4)C3)n2)c1` (centres unmarked) [BDH_32367369], under setting [1], the Inhibition percent is reported as -1.96.

In the case of `CC(=O)N[C@@]12CN(C)CC[C@@H]1[C@@H](c1ccccc1)N(C(=O)c1cccc(Oc3ncccn3)c1)C2` [BDH_32367667], the Inhibition percent under setting [2] was -3.64%.

With `CC(C)(NC(=O)Cc1cccc(F)c1)C(=O)N1CCCC2(CC1)CN(c1ccccc1)C(=O)O2` (centres unmarked) [BDH_32367867], the Inhibition percent under setting [1] is recorded as 2.91.

For `Cc1ccc(C2(C(=O)N3CCC(CC(=O)Nc4ccc5nccnc5c4)CC3)CCOCC2)cc1` [BDH_32368328], under setting [3], the Inhibition percent is -1.52%.

Regarding `Cc1cc(Oc2ccccc2F)nc(C2CCN(C(=O)c3cccc(-c4cncnc4)n3)CC2)n1` [BDH_32368986], the Inhibition percent under setting [3] was found to be 1.94%.

Take `Cc1cc(Oc2ccc(F)cc2)nc(C2CCN(C(=O)c3cncc(-c4cncnc4)c3)CC2)n1` [BDH_32369058]: the Inhibition percent under setting [2] was -2.06%.

Regarding `CC(=O)N1CCC(Cc2ccc(F)cc2)(C(=O)N2CCCC(Cc3cccc(C)n3)C2)CC1` (centres unmarked) [BDH_32369388], the Inhibition percent under setting [1] is -2.67.

For the molecule `O=C(c1cccc(Oc2ncccn2)c1)N1CCCC2(CC1)CN(c1cccc(F)c1)C(=O)O2` (centres unmarked) [BDH_32369515], under setting [1], the Inhibition percent is reported as -4.84.

With `COc1ccccc1Oc1cccc(C2CCN(C(=O)c3ccc(-c4cncnc4)nc3)CC2)n1` [BDH_32370065], under setting [1], the Inhibition percent is on record as -2.43.

As to `Cc1cc(Oc2ccccc2F)nc(C2CCN(C(=O)c3cncc(-c4cncnc4)c3)CC2)n1` [BDH_32370406], the Inhibition percent under setting [2] stood at 0.98%.

For `Cc1nccn1Cc1cccc(C(=O)N2[C@H](Cc3ccccc3)C[C@]3(C)NC(=O)CCC[C@H]23)c1` [BDH_32370660], the Inhibition percent under setting [2] was -3.96%.

As to `CNC(=O)C1CN(C(=O)C2(C)CCN(C(=O)c3ccccc3)CC2)CCN1Cc1ccccc1` (centres unmarked) [BDH_32370904], the Inhibition percent under setting [1] was -3.09.

As to `O=C1OC2(CCCN(C(=O)c3ccnc(N4CCOCC4)c3)CC2)CN1CCc1ccccc1` (centres unmarked) [BDH_32370969], the Inhibition percent under setting [2] is given as -1.73%.

For the molecule `CNC(=O)c1cc(C)nc(C2(C)CCN(C(=O)c3ccc(C)c(NCc4ccccn4)c3)CC2)n1` [BDH_32371078], the Inhibition percent under setting [2] was determined as 4.95%.

With `Cc1ccc(C(=O)N2C[C@@H](c3ccc(F)cc3)[C@@]3(CCCC(=O)N3)C2)cc1NCc1ccccn1` [BDH_32371225], the Inhibition percent under setting [1] is recorded as -3.76.

Consider `COc1ccc(C(=O)N2CCCC(Cc3cn4ccnc4cn3)CC2)cc1OCc1ccccn1` (centres unmarked) [BDH_32371251], for which the Inhibition percent under setting [2] came out at 1.17%.
